Test system: glutamine-PRPP amidotransferase from Ashbya gossypii
Test: Activity of glutamine-PRPP amidotransferase (Messenger and Zalkin method)
Type: biochemical
Settings: wild-type enzyme, FIG. 1
Text: The glutamine-PRPP amidotransferase from Ashbya gossypii is likewise inhibited by AMP or GMP (see Figure). The activity of glutamine-phosphoribosyl-pyrophosphate amidotransferase from Ashbya gossypii can be measured as described in Messenger and Zalkin (1979) J. Biol. Chem. 254, pages 3382-3392.
This can be shown, for example, by expressing the enzymes in Ashbya gossypii (see Example 11).
Measurement of the activity of Gln-PRPP amidotransferase from A. gossypii and of modified forms of the enzyme as a function of the concentration of adenosine 5′-monophosphate (AMP) and guanosine 5′-monophosphate (GMP).

SMILES | inhibition of glutamine-PRPP amidotransferase from Ashbya gossypii
Nc1ncnc2c1ncn2[C@@H]1O[C@H](COP(=O)(O)O)[C@@H](O)[C@H]1O [AMP, adenosine 5′-monophosphate] | inhibited
Nc1nc2c(ncn2[C@@H]2O[C@H](COP(=O)(O)O)[C@@H](O)[C@H]2O)c(=O)[nH]1 [GMP, guanosine 5′-monophosphate] | inhibited

From patent US6878536B2, “Phosphoriboxyl-pyrophosphate synthetase polypeptide” (BASF, priority 1997, dated 2005)
